US6300327A, “Compositions and methods for potentiation of neurotrophin activity” (The University of Southern California, priority 1997, dated 2001)

Tested on: trk
Test: trk tyrosine phosphorylation in PC12 cells (immunoprecipitation, anti-phosphotyrosine immunoblot)
Assay type: cell-based
Procedure: To measure the status of trk tyrosine phosphorylation, PC12 cells were lysed and immunoprecipitated with anti-trk serum. The trk proteins were subjected to 7.5% SDS-PAGE and analyzed by immunoblotting with anti-phosphotyrosine antibodies as described in detail in the literature [Kaplan, D. R. et al., "PDGF beta receptor stimulates tyrosine phosphorylation of GAP and association of GAP with a signaling complex," Cell 61:125-133 (1990)]. Tyrosine phosphorylation of cellular proteins was assayed by probing Western blots of lysates of PC12 cells incubated with K-252b and NT-3 or NGF with anti-phosphotyrosine antibodies. Phospholipase C gammal was identified in these blots as described elsewhere [Vetter, M.L. et al., "Nerve growth factor rapidly stimulates tyrosine phosphorylation of phospholipase C-gammal by a kinase activity associated with the product of trk protooncogene," Proc. Natl Acad. Sci. USA 88:5650-5654 (1991)].
Experiments on PC12 cells confirmed observations made on primary neuron cultures. Treatment with K-252b stimulated NT-3 induced neurite outgrowth and trk tyrosine phosphorylation in PC12 cells while inhibiting NGF induced effects. PC12 cells were incubated for 48 hours with K-252b (50 nM) and NT-3 or NGF (50 ng/ml). FIG. 4A illustrates the % cells with neurites after 48 hours incubation. Neurites were scored if they were a length of one cell body or more. PC12 cells were subsequently lysed and immunoprecipitated with anti-trk serum. trk proteins were subjected to SDS-PAGE and analyzed by immunoblotting with anti-phosphotyrosine antibodies (FIG. 4B). Lane 1, NT-3 +K-252b; lane 2, NT-3; lane 3, NGF +K-252b; lane 4, NGF. For FIG. 4C, PC12 cells were incubated for 1 hour in K-252b (50 nM or 10 μM) and with NT-3 or NGF for 5 minutes prior to lysis; other methods were the same as described for FIG. 4B. Lane 1, NT-3+10 μM K-252b; lane 2, NT-3±50 nM K-252b; lane 3, NT-3; lane 4, NGF+10 μM K-252b; lane 5, NGF+50 nM K-252b; lane 6, NGF; lane 7, untreated control.

CC12OC(CC1(O)C(=O)O)n1c3ccccc3c3c4c(c5c6ccccc6n2c5c31)CNC4=O (stereo not shown) [K-252b]
trk tyrosine phosphorylation with NT-3 (50 nM K-252b + NT-3, 48 hours): clear increase | effect on NGF-induced trk phosphorylation (10 μM K-252b, 1 hour, then NGF 5 minutes): partially inhibited | trk tyrosine phosphorylation with NT-3 (1 hour K-252b followed by 5 minutes NT-3): greatly enhanced | trk tyrosine phosphorylation, inhibitor alone without NT-3 (K-252b alone): identical to untreated controls
